US8648201B2, “Aminopyridine derivatives for treating tumors and inflammatory diseases” (MERCK PATENT GmbH, priority 2009, dated 2014)

Experiments:
Assay type in all cases: biochemical
Conditions in all cases: enzyme
IRAK-1 = molecular target: T1, IRAK-1 (Homo sapiens, UniProt P51617); test: Test for the inhibition of IRAK1 (autophosphorylation, flashplate)
T1 construct: His6 (N); Dr.Jaekel Pool B, 232Y08C1.IRK
Method: (§1) The experimental batches are carried out in a flashplate system with 384 wells/microtitre plate. In each case, in order to investigate the inhibition of the autophosphorylation activity of IRAK1, the IRAK1 sample His6-IRAK1 (5.1 nM), 1 μM ATP (with 0.25 μCi of ^33P-ATP/well) and the test substance in 50 μl of conventional experimental solution per well are incubated at 22° C. for 180 min. The test substances are employed in corresponding concentrations (if desired in a dilution series). The control is carried out without test substance. The reaction is stopped using standard methods and washed. The activity of the kinase is measured via the incorporated radioactivity in top count. In order to determine the non-specific kinase reaction (blank value), the experimental batches are carried out in the presence of 1 μM staurosporin. The radioactivity (decompositions per minute) of the blank value (no use of test substance in the presence of 1 μM staurosporin) is subtracted from all other radioactivity values. The controls (kinase activity without test substance) are set equal to 100 percent and all other radioactivity values (after subtracting the blank value) are expressed set in relation thereto (for example in % of the control). IC50 values (50% inhibition) are determined with the aid of statistics programs, such as, for example, RS1.

IRAK-4 = molecular target: T2, IRAK-4 (Homo sapiens, UniProt Q9NWZ3); test: Test for the inhibition of IRAK4 (flashplate, 33P-ATP)
T2 construct: His6 (N); Dr.Jaekel
T2 sequence (Q9NWZ3 1-460): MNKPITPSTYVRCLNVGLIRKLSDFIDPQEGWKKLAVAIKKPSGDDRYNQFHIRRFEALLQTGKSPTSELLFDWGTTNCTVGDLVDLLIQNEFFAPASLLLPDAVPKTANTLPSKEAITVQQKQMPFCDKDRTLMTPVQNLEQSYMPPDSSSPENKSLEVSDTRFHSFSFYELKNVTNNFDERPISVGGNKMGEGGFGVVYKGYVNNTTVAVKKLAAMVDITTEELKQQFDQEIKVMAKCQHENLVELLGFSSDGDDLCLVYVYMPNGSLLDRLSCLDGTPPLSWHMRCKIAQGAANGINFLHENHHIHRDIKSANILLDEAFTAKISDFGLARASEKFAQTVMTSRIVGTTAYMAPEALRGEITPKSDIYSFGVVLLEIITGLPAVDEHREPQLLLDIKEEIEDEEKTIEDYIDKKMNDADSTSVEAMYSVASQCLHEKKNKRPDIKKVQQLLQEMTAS
Method: as §1, with “case,” for “case, in order to investigate”, “the IRAK4 sample His6-IRAK4 (7.3 nM),” for “the inhibition of”, “the biotinylated substrate peptide STK substrate 1-biotin (Cisbio Bioassays, France) (300” for “the autophosphorylation activity of IRAK1, the IRAK1 sample His6-IRAK1 (5.1”, “nM), 10” for “nM), 1”

PDK1 = molecular target: T3, PDK1 (Homo sapiens, UniProt O15530); test: Test for the inhibition of PDK1 (flashplate, 33P-ATP)
T3 construct: His6 (N)
T3 sequence (O15530 51-556 limits assumed): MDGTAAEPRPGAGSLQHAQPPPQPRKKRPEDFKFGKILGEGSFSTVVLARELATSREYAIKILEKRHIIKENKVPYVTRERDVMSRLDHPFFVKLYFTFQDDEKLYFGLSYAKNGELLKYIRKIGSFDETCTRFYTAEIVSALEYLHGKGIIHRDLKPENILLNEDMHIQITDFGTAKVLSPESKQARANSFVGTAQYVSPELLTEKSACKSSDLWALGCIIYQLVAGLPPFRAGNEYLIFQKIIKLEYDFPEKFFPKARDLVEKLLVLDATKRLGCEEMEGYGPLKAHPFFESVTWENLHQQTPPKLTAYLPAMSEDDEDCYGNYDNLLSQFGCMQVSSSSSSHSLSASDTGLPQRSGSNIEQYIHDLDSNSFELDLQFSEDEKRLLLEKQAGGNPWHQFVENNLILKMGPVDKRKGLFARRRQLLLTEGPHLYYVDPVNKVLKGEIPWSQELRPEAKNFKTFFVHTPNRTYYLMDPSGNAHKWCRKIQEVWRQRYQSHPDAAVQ
Method: The experimental batches are carried out in a flashplate system with 384 wells/microtitration plate.
In each case, the PDK1 sample His6-PDK1(1-50)(3.4 nM), the PDK1 substrate biotin-bA-bA-[…] (400 nM), 4 μM ATP (with 0.2 μCi of ^33P-ATP/well) and the test substance in 50 μl of conventional experimental solution per well are incubated at 30° C. for 60 min. The test substances are employed in corresponding concentrations (if desired in a dilution series). The control is carried out without test substance. The reaction is stopped using standard methods and washed. The activity of the kinase is measured via the incorporated radioactivity in top count. In order to determine the non-specific kinase reaction (blank value), the experimental batches are carried out in the presence of 100 nM staurosporin.
The radioactivity (decompositions per minute) of the blank value (no use of test substance in the presence of staurosporin) is subtracted from all other radioactivity values. The controls (kinase activity without test substance) are set equal to 100 percent and all other radioactivity values (after subtracting the blank value) are expressed set in relation thereto (for example in % of the control).
IC50 values (50% inhibition) are determined with the aid of statistics programmes, such as, for example, RS1.

T1 sequence (P51617 whole entry, species assumed): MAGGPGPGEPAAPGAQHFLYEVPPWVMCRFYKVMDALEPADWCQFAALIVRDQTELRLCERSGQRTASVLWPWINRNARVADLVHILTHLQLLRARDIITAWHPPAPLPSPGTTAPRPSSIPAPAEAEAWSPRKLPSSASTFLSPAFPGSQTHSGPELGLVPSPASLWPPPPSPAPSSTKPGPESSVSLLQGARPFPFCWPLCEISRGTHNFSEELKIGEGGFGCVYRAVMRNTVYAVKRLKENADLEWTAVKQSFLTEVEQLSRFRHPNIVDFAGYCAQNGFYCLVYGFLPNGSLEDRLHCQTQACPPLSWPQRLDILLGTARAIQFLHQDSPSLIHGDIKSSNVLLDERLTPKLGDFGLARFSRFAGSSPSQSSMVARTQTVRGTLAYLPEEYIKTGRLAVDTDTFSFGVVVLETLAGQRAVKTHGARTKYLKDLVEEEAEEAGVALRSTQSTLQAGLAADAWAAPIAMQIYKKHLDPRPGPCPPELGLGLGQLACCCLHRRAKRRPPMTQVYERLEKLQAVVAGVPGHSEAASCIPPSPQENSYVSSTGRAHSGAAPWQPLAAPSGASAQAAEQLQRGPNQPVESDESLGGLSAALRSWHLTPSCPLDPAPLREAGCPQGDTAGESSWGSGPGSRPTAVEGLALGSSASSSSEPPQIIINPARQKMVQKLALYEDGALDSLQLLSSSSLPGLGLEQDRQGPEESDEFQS

IC50 (IRAK-1)	IC50 (IRAK-4)	IC50 (PDK1)	SMILES
100 to 10000 nM	100 to 10000 nM	–	Cn1cc(-c2cnc(N)c(-c3nc4ccc(-c5ccc(=O)[nH]n5)cc4[nH]3)c2)cn1 [Compound A8, 6-{2-[2-Amino-5-(1-methyl-1H-pyrazol-4-yl)-pyridin-3-yl]-3H-benzimidazol-5-yl}-2H-pyridazin-3-one]
100 to 10000 nM	100 to 10000 nM	–	Cn1cc(-c2cnc(N)c(-c3nc4ccccc4[nH]3)c2)cn1 [Compound A34]
100 to 10000 nM	100 to 10000 nM	–	Cc1cccc2nc(-c3cc(-c4cnn(C)c4)cnc3N)[nH]c12 [Compound A42]
–	–	1 to 100 nM	Cn1cc(-c2cnc(N)c(-c3nc4ccc(CCN)cc4[nH]3)c2)cn1 [Compound A64]
100 to 10000 nM	1 to 100 nM	–	Nc1ncc(-c2cnn(C3CCNCC3)c2)cc1-c1nc2ccc(Cl)cc2[nH]1 [Compound A70]
100 to 10000 nM	> 10000 nM	–	Cn1cc(-c2cnc(N)c(-c3nc4c(F)cc(F)cc4[nH]3)c2)cn1 [Compound A76]
100 to 10000 nM	100 to 10000 nM	–	COc1ccc2nc(-c3cc(-c4cnn(CCN(C)C)c4)cnc3N)[nH]c2c1 [Compound A94, 5-[1-(2-Dimethylaminoethyl)-1H-pyrazol-4-yl]-3-(6-methoxy-1H-benzimidazol-2-yl)pyridin-2-ylamine]
100 to 10000 nM	100 to 10000 nM	–	COc1ccc2nc(-c3cc(-c4cnn(CCCN(C)C)c4)cnc3N)[nH]c2c1 [Compound A96, 5-[1-(3-Dimethylaminopropyl)-1H-pyrazol-4-yl]-3-(6-methoxy-1H-benzimidazol-2-yl)pyridin-2-ylamine]
100 to 10000 nM	100 to 10000 nM	–	CCn1cc(-c2cnc(N)c(-c3nc4ccc(OC)cc4[nH]3)c2)cn1 [Compound A105, 5-(1-Ethyl-1H-pyrazol-4-yl)-3-(6-methoxy-1H-benzimidazol-2-yl)pyridin-2-ylamine]
100 to 10000 nM	100 to 10000 nM	–	Cn1cc(-c2cnc(N)c(-c3nc4cc5cn[nH]c5cc4[nH]3)c2)cn1 [Compound A115, 3-(1,7-Dihydroimidazo[4,5-f]indazol-6-yl)-5-(1-methyl-1H-pyrazol-4-yl)pyridin-2-ylamine]
–	–	1 to 100 nM	Cn1cc(-c2cnc(N)c(-c3nc4cc(CC(N)=O)ccc4[nH]3)c2)cn1 [Compound A120, 2-{2-[2-amino-5-(1-methyl-1H-pyrazol-4-yl)pyridin-3-yl]-1H-benzimidazol-5-yl}acetamide]

The remaining lines, values behind:

SMILES	IC50 (IRAK-1)	IC50 (IRAK-4)	IC50 (PDK1)
CC1CC(=O)NN=C1c1ccc2[nH]c(-c3cc(-c4cnn(C5CCNCC5)c4)cnc3N)nc2c1 (stereo not shown) [Compound A17, 6-{2-[2-amino-5-(1-piperidin-4-yl-1H-pyrazol-4-yl)-pyridin-3-yl]-1H-benzimidazol-5-yl}-5-methyl-4,5-dihydro-2H-pyridazin-3-one]	–	–	1 to 100 nM
CC1CC(=O)NN=C1c1ccc2[nH]c(-c3cc(-c4cnn(CC(=O)O)c4)cnc3N)nc2c1 (stereo not shown) [Compound A24, (4-{6-amino-5-[5-(4-methyl-6-oxo-1,4,5,6-tetrahydropyridazin-3-yl)-1H-benzimidazol-2-yl]pyridin-3-yl}pyrazol-1-yl)acetic acid]	–	–	1 to 100 nM
CC1CC(=O)NN=C1c1ccc2[nH]c(-c3cc(-c4cnn(CC(=O)N(C)C)c4)cnc3N)nc2c1 (stereo not shown) [Compound A25, 2-(4-{6-amino-5-[5-(4-methyl-6-oxo-1,4,5,6-tetrahydropyridazin-3-yl)-1H-benzimidazol-2-yl]pyridin-3-yl}pyrazol-1-yl)-N,N-dimethylacetamide]	–	–	1 to 100 nM
CC1CC(=O)NN=C1c1ccc2[nH]c(-c3cc(-c4cnn(CC(=O)N5CCN(C)CC5)c4)cnc3N)nc2c1 (stereo not shown) [Compound A26, 6-[2-(2-Amino-5-{1-[2-(4-methylpiperazin-1-yl)-2-oxoethyl]-1H-pyrazol-4-yl}-pyridin-3-yl)-1H-benzimidazol-5-yl]-5-methyl-4,5-dihydro-2H-pyridazin-3-one]	–	–	1 to 100 nM
COc1cc2[nH]c(-c3cc(-c4cnn(CC(=O)N5CCCCC5)c4)cnc3N)nc2cc1F [Compound A30, 2-{4-[6-amino-5-(5-fluoro-6-methoxy-1H-benzimidazol-2-yl)pyridin-3-yl]pyrazol-1-yl}-1-piperidin-1-ylethanone]	1 to 100 nM	100 to 10000 nM	–
Nc1ncc(-c2ccncc2)cc1-c1nc2ccccc2[nH]1 [Compound A32]	100 to 10000 nM	100 to 10000 nM	–
Nc1ccc(-c2cnc(N)c(-c3nc4ccccc4[nH]3)c2)cn1 [Compound A35]	100 to 10000 nM	100 to 10000 nM	–
Cc1cccc2nc(-c3cc(-c4cnn(CCN5CCOCC5)c4)cnc3N)[nH]c12 [Compound A48]	100 to 10000 nM	100 to 10000 nM	–
Nc1ncc(-c2cnn(C3CCNCC3)c2)cc1-c1nc2ccc(F)cc2[nH]1 [Compound A50]	100 to 10000 nM	1 to 100 nM	–
Nc1ncc(-c2cnn(C3CCNCC3)c2)cc1-c1nc2cc3[nH]c(=O)[nH]c3cc2[nH]1 [Compound A55]	–	–	1 to 100 nM
Nc1ncc(-c2cnn(C3CCNCC3)c2)cc1-c1nc2cc(S(N)(=O)=O)ccc2[nH]1 [Compound A62]	100 to 10000 nM	100 to 10000 nM	–
COc1cc2nc(-c3cc(-c4cnn(C5CCNCC5)c4)cnc3N)[nH]c2cc1OC [Compound A66]	100 to 10000 nM	100 to 10000 nM	–
Cc1cc(Cl)cc2nc(-c3cc(-c4cnn(C5CCNCC5)c4)cnc3N)[nH]c12 [Compound A72]	100 to 10000 nM	100 to 10000 nM	–
COc1ccc2nc(-c3cc(-c4cnn(Cc5cccs5)c4)cnc3N)[nH]c2c1 [Compound A113, 3-(6-Methoxy-1H-benzimidazol-2-yl)-5-(1-thiophen-2-ylmethyl-1H-pyrazol-4-yl)pyridin-2-ylamine]	1 to 100 nM	100 to 10000 nM	–
Nc1ncc(-c2cnn(C3CCNCC3)c2)cc1-c1nc2ccccc2[nH]1 [Compound A114, 3-(1H-Benzimidazol-2-yl)-5-(1-piperidin-4-yl-1H-pyrazol-4-yl)pyridin-2-ylamine]	100 to 10000 nM	1 to 100 nM	–
CC(O)(c1ccccc1)c1ccc2[nH]c(-c3cc(-c4cnn(CCN5CCOCC5)c4)cnc3N)nc2c1 (stereo not shown) [Compound A150, 1-(2-{2-Amino-5-[1-(2-morpholin-4-ylethyl)-1H-pyrazol-4-yl]pyridin-3-yl}-1H-benzimidazol-5-yl)-1-phenylethanol]	–	–	100 to 10000 nM
